Data on three compounds can be found in ChEMBL document CHEMBL1240367, “Therapy of murine pulmonary aspergillosis with antibody-alliinase conjugates and alliin” (2010).

In brackets after ≈: the same amount, converted by molar mass.

What all share (format): functional
The subject of test [1] is Aspergillus fumigatus. The experiment in a line: Antifungal activity against resting Aspergillus fumigatus.
Test [2] has as its system Aspergillus fumigatus. Description: Antifungal activity against swollen Aspergillus fumigatus.
In test [3] the test system is Aspergillus fumigatus. The experiment in a line: Antifungal activity against Aspergillus fumigatus hyphae.
For test [4], the system named is Aspergillus fumigatus. Description: Antifungal activity against Aspergillus fumigatus infected ICR mouse assessed as median survival time at 750 ug, it administered 1 hr post infection repeated on days 4, 6 and 9.
In test [5] the test system is Aspergillus fumigatus. Description: Antifungal activity against Aspergillus fumigatus infected ICR mouse assessed as median survival time at 1 mg/kg, it administered 1 hr post infection repeated on days 4, 6 and 9. The note with it: route endotracheal.

For `C=CCS[S+]([O-])CC=C` (stereo not given) [ALLICIN], the MFC – broadly, the smallest concentration meeting the test's criterion for killing the fungus – in the test with Aspergillus fumigatus [1] amounted to 15 µg/mL (≈ 92.4 µM); in the test on Aspergillus fumigatus [2], 7.5 µg/mL (≈ 46.2 µM). Further, inhibition of growth with Aspergillus fumigatus [3] (MIC) required 30 µg/mL (≈ 185 µM). Take `C=CC[S+]([O-])C[C@H](N)C(=O)O` (stereo not given in full) [ALLIIN]: in the test on Aspergillus fumigatus [4], the MST worked out at 7 days.

With `C[C@@H]1[C@H](O)[C@@H](C)/C=C/C=C/C=C/C=C/C=C/C=C/C=C/[C@H](O[C@@H]2O[C@H](C)[C@@H](O)[C@H](N)[C@@H]2O)C[C@@H]2O[C@](O)(C[C@@H](O)C[C@@H](O)[C@H](O)CC[C@@H](O)C[C@@H](O)CC(=O)O[C@H]1C)C[C@H](O)[C@H]2C(=O)O` [AMPHOTERICIN B], the MST in the test on Aspergillus fumigatus [5] turned out to be 18 days.
